Columns and labels:
HOP-62 = experiment: Cytotoxicity against human HOP62 cells assessed as cell growth at 1 uM after 1 to 11 days by MTT assay; assay type: functional; conditions: read-out: Activity
NCI/ADR-RES [1] = experiment: Cytotoxicity against human NCI/ADR-RES cells assessed as cell growth at 1 uM after 1 to 11 days by MTT assay; assay type: functional; conditions: read-out: Activity
PC-3 [2] = experiment: Cytotoxicity against human PC3 cells assessed as cell growth at 10 uM after 1 to 11 days by MTT assay; assay type: functional; conditions: read-out: Activity
[3] = Cytotoxicity against human Hs 578T cells assessed as cell growth at 1 uM after 1 to 11 days by MTT assay; assay type: functional; conditions: read-out: Activity
U-251 = experiment: Cytotoxicity against human U251 cells assessed as cell growth at 10 uM after 1 to 11 days by MTT assay; assay type: functional; conditions: read-out: Activity
SK-MEL-5 [4] = experiment: Cytotoxicity against human SK-MEL-5 cells after 1 to 11 days by MTT assay; assay type: functional
SW-620 [5] = experiment: Cytotoxicity against human SW620 cells assessed as cell growth at 100 uM after 1 to 11 days by MTT assay; assay type: functional; conditions: read-out: Activity
BT-549 = experiment: Cytotoxicity against human BT549 cells assessed as cell growth at 1 mM after 1 to 11 days by MTT assay; assay type: functional; conditions: read-out: Activity
ACHN [6] = experiment: Cytotoxicity against human ACHN cells assessed as cell growth at 1 uM after 1 to 11 days by MTT assay; assay type: functional; conditions: read-out: Activity
SNB-19 = experiment: Cytotoxicity against human SNB19 cells assessed as cell growth at 0.1 uM after 1 to 11 days by MTT assay; assay type: functional; conditions: read-out: Activity
NCI-H522 = experiment: Cytotoxicity against human NCI-H522 cells assessed as cell growth at 1 uM after 1 to 11 days by MTT assay; assay type: functional; conditions: read-out: Activity
ACHN [7] = experiment: Cytotoxicity against human ACHN cells after 1 to 11 days by MTT assay; assay type: functional
COLO 205 = experiment: Cytotoxicity against human COLO205 cells assessed as cell growth at 0.1 uM after 1 to 11 days by MTT assay; assay type: functional; conditions: read-out: Activity
HL-60(TB) = experiment: Cytotoxicity against human HL-60(TB) cells after 1 to 11 days by MTT assay; assay type: functional
[8] = target: Glycogen synthase kinase-3 beta (Homo sapiens) (UniProt P49841); experiment: Inhibition of human GSK3-beta assessed as residual enzyme activity at 3 uM after 40 mins by scintillation counting
SK-MEL-5 [9] = experiment: Cytotoxicity against human SK-MEL-5 cells assessed as cell growth at 10 uM after 1 to 11 days by MTT assay; assay type: functional; conditions: read-out: Activity
SF-539 [10] = experiment: Cytotoxicity against human SF539 cells assessed as cell growth at 1 mM after 1 to 11 days by MTT assay; assay type: functional; conditions: read-out: Activity
M14 = experiment: Cytotoxicity against human M14 cells assessed as cell growth at 1 mM after 1 to 11 days by MTT assay; assay type: functional; conditions: read-out: Activity
HCC 2998 [11] = experiment: Cytotoxicity against human HCC2998 cells assessed as cell growth at 0.1 uM after 1 to 11 days by MTT assay; assay type: functional; conditions: read-out: Activity
TK-10 = experiment: Cytotoxicity against human TK10 cells assessed as cell growth at 1 uM after 1 to 11 days by MTT assay; assay type: functional; conditions: read-out: Activity
A498 = experiment: Cytotoxicity against human A498 cells after 1 to 11 days by MTT assay; assay type: functional
SF-539 [12] = experiment: Cytotoxicity against human SF539 cells assessed as cell growth at 1 uM after 1 to 11 days by MTT assay; assay type: functional; conditions: read-out: Activity
HCC 2998 [13] = experiment: Cytotoxicity against human HCC2998 cells after 1 to 11 days by MTT assay; assay type: functional
UACC-257 = experiment: Cytotoxicity against human UACC257 cells assessed as cell growth at 1 mM after 1 to 11 days by MTT assay; assay type: functional; conditions: read-out: Activity
T47D = experiment: Cytotoxicity against human T47D cells assessed as cell growth at 100 uM after 1 to 11 days by MTT assay; assay type: functional; conditions: read-out: Activity
RXF 393 = experiment: Cytotoxicity against human […] cells assessed as cell growth at 1 uM after 1 to 11 days by MTT assay; assay type: functional; conditions: read-out: Activity
MOLT-4 [14] = experiment: Cytotoxicity against human MOLT4 cells assessed as cell growth at 1 uM after 1 to 11 days by MTT assay; assay type: functional; conditions: read-out: Activity
SW-620 [15] = experiment: Cytotoxicity against human SW620 cells assessed as cell growth at 1 uM after 1 to 11 days by MTT assay; assay type: functional; conditions: read-out: Activity
A549 = experiment: Cytotoxicity against human A549 cells assessed as cell growth at 10 uM after 1 to 11 days by MTT assay; assay type: functional; conditions: read-out: Activity
HCT-15 [16] = experiment: Cytotoxicity against human HCT15 cells after 1 to 11 days by MTT assay; assay type: functional
NCI-H460 [17] = experiment: Cytotoxicity against human NCI-H460 cells assessed as cell growth at 10 uM after 1 to 11 days by MTT assay; assay type: functional; conditions: read-out: Activity
NCI-H460 [18] = experiment: Cytotoxicity against human NCI-H460 cells assessed as cell growth at 100 uM after 1 to 11 days by MTT assay; assay type: functional; conditions: read-out: Activity
SR = experiment: Cytotoxicity against human SR cells assessed as cell growth at 0.1 uM after 1 to 11 days by MTT assay; assay type: functional; conditions: read-out: Activity
SNB-75 = experiment: Cytotoxicity against human SNB75 cells assessed as cell growth at 100 uM after 1 to 11 days by MTT assay; assay type: functional; conditions: read-out: Activity
MCF7 = experiment: Cytotoxicity against human MCF7 cells assessed as cell growth at 10 uM after 1 to 11 days by MTT assay; assay type: functional; conditions: read-out: Activity
NCI/ADR-RES [19] = experiment: Cytotoxicity against human NCI/ADR-RES cells after 1 to 11 days by MTT assay; assay type: functional
HCT-15 [20] = experiment: Cytotoxicity against human HCT15 cells assessed as cell growth at 1 uM after 1 to 11 days by MTT assay; assay type: functional; conditions: read-out: Activity
IGROV-1 = experiment: Cytotoxicity against human IGROV1 cells assessed as cell growth at 10 uM after 1 to 11 days by MTT assay; assay type: functional; conditions: read-out: Activity
OVCAR-4 = experiment: Cytotoxicity against human OVCAR4 cells after 1 to 11 days by MTT assay; assay type: functional
UO-31 = experiment: Cytotoxicity against human UO31 cells assessed as cell growth at 1 mM after 1 to 11 days by MTT assay; assay type: functional; conditions: read-out: Activity
PC-3 [21] = experiment: Cytotoxicity against human PC3 cells assessed as cell growth at 0.1 uM after 1 to 11 days by MTT assay; assay type: functional; conditions: read-out: Activity
HOP-92 = experiment: Cytotoxicity against human HOP92 cells assessed as cell growth at 1 mM after 1 to 11 days by MTT assay; assay type: functional; conditions: read-out: Activity
MOLT-4 [22] = experiment: Cytotoxicity against human MOLT4 cells assessed as cell growth at 10 uM after 1 to 11 days by MTT assay; assay type: functional; conditions: read-out: Activity
[23] = read-out: LC50 (the source's name)

Sequence of Glycogen synthase kinase-3 beta (Homo sapiens) (P49841 whole entry, looked up): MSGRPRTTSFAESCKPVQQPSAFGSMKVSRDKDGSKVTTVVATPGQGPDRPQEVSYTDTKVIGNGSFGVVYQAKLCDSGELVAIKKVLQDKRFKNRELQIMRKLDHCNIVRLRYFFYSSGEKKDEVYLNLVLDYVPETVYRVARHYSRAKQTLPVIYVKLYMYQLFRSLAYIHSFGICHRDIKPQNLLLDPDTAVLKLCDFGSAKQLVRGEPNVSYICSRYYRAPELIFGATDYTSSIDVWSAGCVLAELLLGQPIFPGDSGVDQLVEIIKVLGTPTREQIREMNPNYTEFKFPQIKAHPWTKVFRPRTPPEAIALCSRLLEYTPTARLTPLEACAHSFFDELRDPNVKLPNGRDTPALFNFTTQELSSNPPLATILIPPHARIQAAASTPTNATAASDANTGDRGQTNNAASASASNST

O=C1Nc2ncccc2/C1=C1/Nc2ccccc2/C1=N\O
growth at 1 µM (HOP-62): 100%
growth at 1 µM (NCI/ADR-RES [1]): 100%
growth at 10 µM (PC-3 [2]): 82%
growth at 1 µM [3]: 98%
growth at 10 µM (U-251): 89%
GI50 (SK-MEL-5 [4]): 9.53 µM
TGI (SK-MEL-5 [4]): > 100 µM
CC50 (SK-MEL-5 [4]; [23]): > 100 µM
growth at 100 µM (SW-620 [5]): 43%
growth at 1000 µM (BT-549): 30%
growth at 1 µM (ACHN [6]): 95%
growth at 0.1 µM (SNB-19): 94%
growth at 1 µM (NCI-H522): 99%
GI50 (ACHN [7]): 2.68 µM
TGI (ACHN [7]): > 100 µM
CC50 (ACHN [7]; [23]): > 100 µM
growth at 0.1 µM (COLO 205): 96%
GI50 (HL-60(TB)): 5.23 µM
TGI (HL-60(TB)): > 100 µM
CC50 (HL-60(TB); [23]): > 100 µM
Activity [8]: 18%
growth at 10 µM (SK-MEL-5 [9]): 94%
growth at 1000 µM (SF-539 [10]): 52%
growth at 1000 µM (M14): 21%
growth at 0.1 µM (HCC 2998 [11]): 93%
growth at 1 µM (TK-10): 104%
GI50 (A498): 1.93 µM
TGI (A498): > 100 µM
CC50 (A498; [23]): > 100 µM
growth at 1 µM (SF-539 [12]): 91%
GI50 (HCC 2998 [13]): 5.96 µM
TGI (HCC 2998 [13]): > 100 µM
CC50 (HCC 2998 [13]; [23]): > 100 µM
growth at 1000 µM (UACC-257): 60%
growth at 100 µM (T47D): 16%
growth at 1 µM (RXF 393): 94%
growth at 1 µM (MOLT-4 [14]): 77%
growth at 1 µM (SW-620 [15]): 94%
growth at 10 µM (A549): 91%
GI50 (HCT-15 [16]): 3.67 µM
TGI (HCT-15 [16]): > 100 µM
CC50 (HCT-15 [16]; [23]): > 100 µM
growth at 10 µM (NCI-H460 [17]): 97%
growth at 100 µM (NCI-H460 [18]): 41%
growth at 0.1 µM (SR): 109%
growth at 100 µM (SNB-75): 14%
growth at 10 µM (MCF7): 86%
GI50 (NCI/ADR-RES [19]): > 100 µM
TGI (NCI/ADR-RES [19]): > 100 µM
CC50 (NCI/ADR-RES [19]; [23]): > 100 µM
growth at 1 µM (HCT-15 [20]): 96%
growth at 10 µM (IGROV-1): 60%
GI50 (OVCAR-4): 9.1 µM
TGI (OVCAR-4): > 100 µM
CC50 (OVCAR-4; [23]): > 100 µM
growth at 1000 µM (UO-31): 11%
growth at 0.1 µM (PC-3 [21]): 96%
growth at 1000 µM (HOP-92): 44%
growth at 10 µM (MOLT-4 [22]): 70%

Reference: ChEMBL document CHEMBL1154822, “Synthesis and antiproliferative activity of 7-azaindirubin-3'-oxime, a 7-aza isostere of the natural indirubin pharmacophore” (J Nat Prod, 2009)
